Data as given in patent US6495533B1, “Drugs containing phosphoric acid derivatives as the active ingredient” (Ono Pharmaceutical Co., Ltd., priority 1999, dated 2002).

Tested on: TNFα production
Experiment: Measure of TNFα production inhibitory activity (serum TNFα after LPS challenge in mice)
Assay type: in vivo
Conditions: female BALB/c mice, 7 weeks; test compound intravenous; LPS 100 μg/mouse intraperitoneal; blood 90 minutes after LPS; serum TNFα by ELISA; read-out: ED50 (50% effective dose) for inhibition of serum level of TNFα
Experimental: (i) Measure of TNFα Production Inhibitory Activity
Measure of TNFα production inhibitory activity was prepared according to procedures described previously (Kazuo Ohuchi, SEIBUTSUKAGAKUJIKKENKOZA, 12, 707 (1994) Hirokawa, Tokyo). Female mice (BALB/c, 7 weeks) were injected with test compounds via intravenous administration and with LPS (100 μg/mouse) (Bacto W. E. coli 055:B5; DIFCO Lab.) via in traperitoneal administration. At 90 minutes after LPS challenge, blood with heparin was obtained from abdominal aorta, and serum was stored at −80° C. Serum level of TNFα was determined by mouse cytokine ELISA kit (Genzyme). Inhibition and 50% effective dose (ED50) of test compounds were calculated as 100% of the difference of serum level of TNFα between in control and in LPS. ED50 of some compounds produced by the following examples were 0.01-100 mg/kg.

## CCCCCCCC(=O)N[C@@H](COP(=O)(O)O)c1ccccc1 [example 8]
  ED50: 2.6 mg/kg
